Source: ChEMBL document CHEMBL4393679, “Structure-Guided Drug Design of 6-Substituted Adenosine Analogues as Potent Inhibitors of Mycobacterium tuberculosis Adenosine Kinase” (J Med Chem, 2019)

Key:
Format in all cases: functional
[1] = test system: Mycobacterium tuberculosis; test: Antimycobacterial activity against Mycobacterium tuberculosis H37Rv harboring G262S mutant by microplate alamar blue assay
[2] = test system: Mycobacterium tuberculosis; test: Antimycobacterial activity against Mycobacterium tuberculosis H37Rv harboring D251N mutant by microplate alamar blue assay
[3] = test system: Mycobacterium tuberculosis; test: Antimycobacterial activity against Mycobacterium tuberculosis H37Rv harboring Q172P mutant by microplate alamar blue assay

Measured: MIC

Nc1ncnc2c1c(I)cn2[C@@H]1O[C@H](CO)[C@@H](O)[C@H]1O [IODOTUBERCIDIN]
>100 µM: all assays above
